Results from patent US10307413B2, “Tetrahydro- and dihydro-isoquinoline PRMT5 inhibitors and uses thereof” (Epizyme, Inc., priority 2013, dated 2019).
Read-outs that look alike come from different tables or passages of the source.

Tests used:
[1] = tested on: symmetric di-methyl arginine in Z-138 cells; assay: Z-138 Methylation Assay (In Cell Western for symmetric di-methyl arginine and DNA content); assay type: cell-based; conditions: Homo sapiens, read-out: ICW EC50
Procedure, shortened: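 In-cell western: symmetric di-methyl arginine signal ratioed to DRAQ5 DNA content after 96 h compound exposure of Z-138 cells seeded at 50,000 cells/mL.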

Z-138 cell line = assay: Z-138 Proliferation Assay (Cell Titer Glo, 5 days); assay type: cell-based; conditions: Homo sapiens, read-out: Proliferation EC50
Procedure, shortened: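 Viability via CellTiter-Glo luminescence (ATP) after 5-day incubation at 37 °C, 5% CO2. Compounds tested in triplicate, nine 3-fold steps, highest final concentration 20 μM in 0.2% DMSO; 50% inhibitory concentration by 4-parameter fit of normalized curves.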

SMILES | EC50 [1] | EC50 (Z-138 cell line; 120 h, Z-138 cells, 5 days) | EC50 (Z-138 cell line; Z-138, 120 h)
CS(=O)(=O)N1CCC(Nc2cccc(C(=O)NC[C@H](O)CN3CCc4ccccc4C3)c2)CC1 [Compound 216] | < 0.1 µM | 0.101 to 1 µM | 
O=C(NC[C@H](O)CN1CCc2ccccc2C1)c1cccc(NC2CCN(CC(F)(F)F)CC2)c1 [Compound 217] | < 0.1 µM | 0.101 to 1 µM | 
O=C(NC[C@@H](O)CN1CCc2ccccc2C1)c1ccc2ncccc2c1 [Compound 218] | 0.101 to 1 µM | 10 to 50 µM | 
Cc1ccc2cc(C(=O)NC[C@@H](O)CN3CCc4ccccc4C3)ccc2n1 [Compound 219, (R)—N-(3-(3,4-dihydroisoquinolin-2(1H)-yl)-2-hydroxypropyl)-2-methylquinoline-6-carboxamide] | 0.101 to 1 µM | 10 to 50 µM | 
O=C(NC[C@H](O)CN1CCc2ccccc2C1)c1ccc2ncccc2c1 [Compound 220] | < 0.1 µM | 0.101 to 1 µM | 
Cc1ccc2cc(C(=O)NC[C@H](O)CN3CCc4ccccc4C3)ccc2n1 [Compound 221, (S)—N-(3-(3,4-dihydroisoquinolin-2(1H)-yl)-2-hydroxypropyl)-2-methylquinoline-6-carboxamide] | < 0.1 µM | 0.101 to 1 µM | 
NC(=O)CNCCOc1cccc(C(=O)NCC(O)CN2CCc3ccccc3C2)c1 (centres unmarked) [Compound 222] | 0.101 to 1 µM | > 20 µM | 
CN1CCC(Nc2cc(C(=O)NC[C@H](O)CN3CCc4ccccc4C3)ccn2)CC1 [Compound 223] | < 0.1 µM | 1 to 10 µM | 
O=C(NC[C@H](O)CN1CCc2ccccc2C1)c1ccnc(NC2CCN(CC(F)(F)F)CC2)c1 [Compound 224] | < 0.1 µM | 0.101 to 1 µM | 
CS(=O)(=O)N1CCC(Nc2cc(C(=O)NC[C@H](O)CN3CCc4ccccc4C3)ccn2)CC1 [Compound 225] | < 0.1 µM | < 0.1 µM | 
O=C(NC[C@H](O)CN1CCc2ccccc2C1)c1ccnc(NC2CCN(CC(F)(F)F)C2)c1 (some centres unmarked) [Compound 226] | < 0.1 µM | 0.101 to 1 µM | 
CS(=O)(=O)N1CCC(Nc2cc(C(=O)NC[C@H](O)CN3CCc4ccccc4C3)ccn2)C1 (some centres unmarked) [Compound 227] | < 0.1 µM | 0.101 to 1 µM | 
CC(=O)N1CCC(Nc2cc(C(=O)NC[C@H](O)CN3CCc4ccccc4C3)ccn2)C1 (some centres unmarked) [Compound 228] | < 0.1 µM | 0.101 to 1 µM | 
O=C(NC[C@H](O)CN1CCc2ccccc2C1)c1ccnc(OC2CCNCC2)c1 [Compound 229] | < 0.1 µM | 1 to 10 µM | 
O=C(NC[C@H](O)CN1CCc2ccccc2C1)c1cc(NC2CCOC2)ncn1 (some centres unmarked) [Compound 230] | < 0.1 µM | 0.101 to 1 µM | 
Cc1c(NC2CCOCC2)ncnc1C(=O)NC[C@H](O)CN1CCc2ccccc2C1 [Compound 231] | < 0.1 µM | 1 to 10 µM | 
CN(C[C@H](O)CN1CCc2ccccc2C1)C(=O)c1cc(NC2CCOCC2)ncn1 [Compound 232] | 0.101 to 1 µM | 1 to 10 µM | 
CNCCN(C)c1cc(C(=O)NC[C@H](O)CN2CCc3ccccc3C2)ccn1 [Compound 233] | 0.101 to 1 µM | 1 to 10 µM | 
CN(C)CCOc1cc(C(=O)NC[C@H](O)CN2CCc3ccccc3C2)ccn1 [Compound 234] | < 0.1 µM | 1 to 10 µM | 
O=C(NC[C@H](O)CN1CCc2ccccc2C1)c1ccnc(NCC2CCNCC2)c1 [Compound 235] | 0.101 to 1 µM | > 20 µM | 
O=C(NC[C@H](O)CN1CCc2ccccc2C1)c1ccnc(NCC2CCCNC2)c1 (some centres unmarked) [Compound 236] | 0.101 to 1 µM | 1 to 10 µM | 
O=C(NC[C@H](O)CN1CCc2ccccc2C1)c1ccnc(NCC2CCCCN2)c1 (some centres unmarked) [Compound 237] | < 0.1 µM | 1 to 10 µM | 

SMILES | EC50 [1] | EC50 (Z-138 cell line; 120 h, Z-138 cells, 5 days) | EC50 (Z-138 cell line; Z-138, 120 h)
O=C(NC[C@H](O)CN1CCc2ccccc2C1)c1ccnc(NCC2CNCCO2)c1 (some centres unmarked) [Compound 238] | 0.101 to 1 µM | 10 to 50 µM | 
CN1CCC(Nc2cccc(C(=O)NC[C@H](O)CN3CCc4ccccc4C3)c2)CC1 [Compound 239] | < 0.1 µM | 1 to 10 µM | 
O=C(NC[C@H](O)CN1CCc2ccccc2C1)c1c[nH]c2ccccc12 [Compound 240] | 0.101 to 1 µM | > 20 µM | 
O=C(NC[C@H](O)CN1CCc2ccccc2C1)c1cccc2[nH]cnc12 [Compound 241] | 0.101 to 1 µM | 1 to 10 µM | 
O=C(NC[C@H](O)CN1CCc2ccccc2C1)c1n[nH]c2ccccc12 [Compound 242] | 0.101 to 1 µM | 1 to 10 µM | 
O=C(NC[C@H](O)CN1CCc2ccccc2C1)c1ccc2c(c1)CCO2 [Compound 243] | 0.101 to 1 µM | 1 to 10 µM | 
O=C(NC[C@H](O)CN1CCc2ccccc2C1)c1ccc2c(c1)OCO2 [Compound 244] | 0.101 to 1 µM | 1 to 10 µM | 
O=C(NC[C@H](O)CN1CCc2ccccc2C1)c1cnc2ccccc2n1 [Compound 245] | 0.101 to 1 µM | 10 to 50 µM | 
Cn1cc(C(=O)NC[C@H](O)CN2CCc3ccccc3C2)c2ccccc21 [Compound 246] | 0.101 to 1 µM |  | 1 to 10 µM
O=C(NC[C@H](O)CN1CCc2ccccc2C1)c1ccc2c(c1)CCCC2 [Compound 247] | 0.101 to 1 µM | 1 to 10 µM | 
O=C(NC[C@H](O)CN1CCc2ccccc2C1)c1csc2ccccc12 [Compound 248] | 0.101 to 1 µM | 1 to 10 µM | 
O=C(NC[C@H](O)CN1CCc2ccccc2C1)c1cccc2c1OCCO2 [Compound 249] | 0.101 to 1 µM | 10 to 50 µM | 
COc1ccc2oc(C(=O)NC[C@H](O)CN3CCc4ccccc4C3)cc2c1 [Compound 250] | < 0.1 µM | 1 to 10 µM | 
COc1ccc2cc(C(=O)NC[C@H](O)CN3CCc4ccccc4C3)ccc2c1 [Compound 251] | < 0.1 µM | 1 to 10 µM | 
CC(=O)N(C)CCN1CCN(Cc2cccc(C(=O)NCC(O)CN3CCc4ccccc4C3)c2)CC1 (centres unmarked) [Compound 252] | 0.101 to 1 µM | 1 to 10 µM | 
CN1CCN(Cc2cccc(C(=O)NCC(O)CN3CCc4ccccc4C3)c2)CC1CO (centres unmarked) [Compound 253] | 0.101 to 1 µM | 1 to 10 µM | 
CN1CCC(Nc2cc(C(=O)NC[C@H](O)CN3CCc4ccccc4C3)ccn2)C1 (some centres unmarked) [Compound 255] | < 0.1 µM | 1 to 10 µM | 
O=C(NC[C@H](O)CN1CCc2ccccc2C1)c1cc(OC2CCOCC2)ncn1 [Compound 256] | < 0.1 µM | 1 to 10 µM | 
CS(=O)(=O)N1CCC(Nc2cc(C(=O)NC[C@H](O)CN3CCc4ccccc4C3)ncn2)C1 (some centres unmarked) [Compound 257] | < 0.1 µM | 1 to 10 µM | 
O=C(NC[C@H](O)CN1CCc2ccccc2C1)c1cc(OC2CCNCC2)ncn1 [Compound 258] | 0.101 to 1 µM | 10 to 50 µM | 
O=C(NC[C@H](O)CN1CCc2ccccc2C1)c1cncc(NC2CCNC2)c1 (some centres unmarked) [Compound 259] | 0.101 to 1 µM | > 20 µM | 
O=C(NC[C@H](O)CN1CCc2ccccc2C1)c1cncc(OC2CCNCC2)c1 [Compound 260] | 0.101 to 1 µM | > 20 µM | 

SMILES | EC50 [1] | EC50 (Z-138 cell line; 120 h, Z-138 cells, 5 days) | EC50 (Z-138 cell line; Z-138, 120 h)
CN(c1cc(C(=O)NC[C@H](O)CN2CCc3ccccc3C2)ncn1)C1CCOCC1 [Compound 261] | < 0.1 µM | 1 to 10 µM | 
CN(CCNc1cc(C(=O)NC[C@H](O)CN2CCc3ccccc3C2)ccn1)S(C)(=O)=O [Compound 262] | < 0.1 µM | 0.101 to 1 µM | 
CN(CCN(C)S(C)(=O)=O)c1cc(C(=O)NC[C@H](O)CN2CCc3ccccc3C2)ccn1 [Compound 263] | < 0.1 µM | 1 to 10 µM | 
CN1CCCC(CNc2cc(C(=O)NC[C@H](O)CN3CCc4ccccc4C3)ccn2)C1 (some centres unmarked) [Compound 264] | < 0.1 µM | 1 to 10 µM | 
CN1CCOC(CNc2cc(C(=O)NC[C@H](O)CN3CCc4ccccc4C3)ccn2)C1 (some centres unmarked) [Compound 265] | 0.101 to 1 µM | 1 to 10 µM | 
CC(=O)N1CC[C@H](Nc2cccc(C(=O)NC[C@H](O)CN3CCc4ccccc4C3)c2)C1 [Compound 266] | < 0.1 µM | 0.101 to 1 µM | 
CS(=O)(=O)N1CC[C@@H](Nc2cccc(C(=O)NC[C@H](O)CN3CCc4ccccc4C3)c2)C1 [Compound 267] | < 0.1 µM | 0.101 to 1 µM | 
CS(=O)(=O)N1CC[C@H](Nc2cccc(C(=O)NC[C@H](O)CN3CCc4ccccc4C3)c2)C1 [Compound 268] | < 0.1 µM | 0.101 to 1 µM | 
O=C(NC[C@H](O)CN1CCc2ccccc2C1)c1cc2ccccc2[nH]1 [Compound 269] | < 0.1 µM | 1 to 10 µM | 
O=C(NC[C@H](O)CN1CCc2ccccc2C1)c1cc2ccccc2o1 [Compound 271] | 0.101 to 1 µM | 1 to 10 µM | 
O=C(NC[C@H](O)CN1CCc2ccccc2C1)c1nccc2ccccc12 [Compound 272] | < 0.1 µM | 1 to 10 µM | 
O=C(NC[C@H](O)CN1CCc2ccccc2C1)c1ccc2ncsc2c1 [Compound 273] | 0.101 to 1 µM | 1 to 10 µM | 
O=C(NC[C@H](O)CN1CCc2ccccc2C1)c1ccc2c(c1)OCCO2 [Compound 274] | 0.101 to 1 µM | 1 to 10 µM | 
Cc1cc2ncc(C(=O)NC[C@H](O)CN3CCc4ccccc4C3)c(C)n2n1 [Compound 275] | 0.101 to 1 µM | 1 to 10 µM | 
O=C(NC[C@H](O)CN1CCc2ccccc2C1)c1cc2cccc(Cl)c2[nH]1 [Compound 276] | 0.101 to 1 µM | 1 to 10 µM | 
CN(CCOc1cccc(C(=O)NCC(O)CN2CCc3ccccc3C2)c1)CC(N)=O (centres unmarked) [Compound 277] | < 0.1 µM | 1 to 10 µM | 
CS(=O)(=O)N1CC(Nc2cc(C(=O)NC[C@H](O)CN3CCc4ccccc4C3)ccn2)C1 [Compound 278] | < 0.1 µM | 0.101 to 1 µM | 
CC(=O)N1CC(Nc2cc(C(=O)NC[C@H](O)CN3CCc4ccccc4C3)ccn2)C1 [Compound 279] | < 0.1 µM | < 0.1 µM | 
O=C(NC[C@H](O)CN1CCc2ccccc2C1)c1cc(NC2CNC2)ncn1 [Compound 280] | < 0.1 µM | 0.101 to 1 µM | 
CN1CC(Nc2cc(C(=O)NC[C@H](O)CN3CCc4ccccc4C3)ncn2)C1 [Compound 281] | 0.101 to 1 µM | 10 to 50 µM | 
